Reference: article PMC9116245, “New 1,2,3-triazole linked ciprofloxacin-chalcones induce DNA damage by inhibiting human topoisomerase I& II and tubulin polymerization” (Journal of Enzyme Inhibition and Medicinal Chemistry, 2022)

How the values were obtained:
786-0 = assay: NCI one-dose screen; type: cell-based; conditions: Homo sapiens; 786-0, 10 µM; read-out: Growth Percent
Protocol: (§1) For screening of anticancer properties, all the developed compounds were chosen by the (NCI) for in-vitro antitumor evaluation. The assay was carried out using 59 human cancer cell lines obtained from nine tumour subpanels (breast, ovarian, melanoma, leukaemia, renal, CNS, lung, prostate, and colon cancer cell lines). Compounds were assessed at a 10 µM concentration. […] Also, hybrids 4a, 4b, 4e, 4i and 4j produced significant anti-proliferative effect in several cancer cells, particularly in leukaemia (RPMI-8226) and colon (HCT116) cells with growth percent of 47.87, −14.59, −24.56, −24.42, −15.84, −9.74, −53.36, −10.26, −31.29, and −39.51%, respectively.
(§2) The method description for NCI anticancer screening is provided in detail in the standard NCI-60 testing protocol.

A549/ATCC = assay: NCI one-dose screen; type: cell-based; conditions: Homo sapiens, read-out: Growth Percent
Protocol: as §1, §2

ACHN = assay: NCI one-dose screen; type: cell-based; conditions: Homo sapiens, read-out: Growth Percent
Protocol: as §1, §2

CCRF-CEM = assay: NCI one-dose screen; type: cell-based; conditions: Homo sapiens, read-out: Growth Percent
Protocol: as §1, §2

DU-145 = assay: NCI one-dose screen; type: cell-based; conditions: Homo sapiens; DU-145, 10 µM; read-out: Growth Percent
Protocol: as §1, §2

HCC-2998 = assay: NCI one-dose screen; type: cell-based; conditions: Homo sapiens; HCC-2998, 10 µM; read-out: Growth Percent
Protocol: as §1, §2

HOP-62 = assay: NCI one-dose screen; type: cell-based; conditions: Homo sapiens; HOP-62, 10 µM; read-out: Growth Percent
Protocol: as §1, §2

HT29 = assay: NCI one-dose screen; type: cell-based; conditions: Homo sapiens, HT-29; HT29, 10 µM; read-out: Growth Percent
Protocol: as §1, §2

IGROV1 = assay: NCI one-dose screen; type: cell-based; conditions: Homo sapiens, IGROV-1; IGROV1, 10 µM; read-out: Growth Percent
Protocol: as §1, §2

LOX IMVI = assay: NCI one-dose screen; type: cell-based; conditions: Homo sapiens, read-out: Growth Percent
Protocol: as §1, §2

MDA-MB-435 = assay: NCI one-dose screen; type: cell-based; conditions: Homo sapiens; MDA-MB-435, 10 µM; read-out: Growth Percent
Protocol: as §1, §2

MDA-MB-468 = assay: NCI one-dose screen; type: cell-based; conditions: Homo sapiens; MDA-MB-468, 10 µM; read-out: Growth Percent
Protocol: as §1, §2

NCI-H226 = assay: NCI one-dose screen; type: cell-based; conditions: Homo sapiens; NCI-H226, 10 µM; read-out: Growth Percent
Protocol: as §1, §2

NCI-H460 = assay: NCI one-dose screen; type: cell-based; conditions: Homo sapiens; NCI-H460, 10 µM; read-out: Growth Percent
Protocol: as §1, §2

NCI-H522 = assay: NCI one-dose screen; type: cell-based; conditions: Homo sapiens; NCI-H522, 10 µM; read-out: Growth Percent
Protocol: as §1, §2

OVCAR-4 = assay: NCI one-dose screen; type: cell-based; conditions: Homo sapiens; OVCAR-4, 10 µM; read-out: Growth Percent
Protocol: as §1, §2

OVCAR-8 = assay: NCI one-dose screen; type: cell-based; conditions: Homo sapiens; OVCAR-8, 10 µM; read-out: Growth Percent
Protocol: as §1, §2

PC-3 = assay: NCI one-dose screen; type: cell-based; conditions: Homo sapiens; PC-3, 10 µM; read-out: Growth Percent
Protocol: as §1, §2

RXF 393 = assay: NCI one-dose screen; type: cell-based; conditions: Homo sapiens; RXF 393, 10 µM; read-out: Growth Percent
Protocol: as §1, §2

SK-MEL-5 = assay: NCI one-dose screen; type: cell-based; conditions: Homo sapiens; SK-MEL-5, 10 µM; read-out: Growth Percent
Protocol: as §1, §2

SK-OV-3 = assay: NCI one-dose screen; type: cell-based; conditions: Homo sapiens; SK-OV-3, 10 µM; read-out: Growth Percent
Protocol: as §1, §2

SN12C = assay: NCI one-dose screen; type: cell-based; conditions: Homo sapiens, read-out: Growth Percent
Protocol: as §1, §2

SNB-19 = assay: NCI one-dose screen; type: cell-based; conditions: Homo sapiens; SNB-19, 10 µM; read-out: Growth Percent
Protocol: as §1, §2

SNB-75 = assay: NCI one-dose screen; type: cell-based; conditions: Homo sapiens; SNB-75, 10 µM; read-out: Growth Percent
Protocol: as §1, §2

SR = assay: NCI one-dose screen; type: cell-based; conditions: Homo sapiens, read-out: Growth Percent
Protocol: as §1, §2

SW-620 = assay: NCI one-dose screen; type: cell-based; conditions: Homo sapiens; SW-620, 10 µM; read-out: Growth Percent
Protocol: as §1, §2

TK-10 = assay: NCI one-dose screen; type: cell-based; conditions: Homo sapiens; TK-10, 10 µM; read-out: Growth Percent
Protocol: as §1, §2

UACC-257 = assay: NCI one-dose screen; type: cell-based; conditions: Homo sapiens; UACC-257, 10 µM; read-out: Growth Percent
Protocol: as §1, §2

UACC-62 = assay: NCI one-dose screen; type: cell-based; conditions: Homo sapiens; UACC-62, 10 µM; read-out: Growth Percent
Protocol: as §1, §2

HCT-116 = assay: NCI one-dose screen; type: cell-based, human; conditions: HCT-116, 10 µM; for activity at 10 µM: Homo sapiens, read-out: Growth Percent
Protocol: as §1, §2

RPMI-8226 = assay: NCI one-dose screen; type: cell-based, human; conditions: Homo sapiens; RPMI-8226, 10 µM; read-out: Growth Percent
Protocol: as §1, §2

[1] = test system: 59 human cancer cell lines; assay: NCI one-dose screen, whole panel; type: cell-based; conditions: Homo sapiens, mean over the panel, read-out: Mean Growth Percent
Protocol: as §1, §2

Caco-2 = assay: MTT assay; type: cell-based; conditions: Homo sapiens; Caco-2, MTT assay, 24 h incubation
How it was run: (§3)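 Colorectal lines treated with 1, 5, 10, 20, 40, 80 or 100 µM compound, or DMSO vehicle. Proliferation read by MTT reduction.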

HCT116 = assay: MTT assay; type: cell-based; conditions: Homo sapiens, HCT-116, 24 h incubation
How it was run: as §3

HT-29 = assay: MTT assay; type: cell-based; conditions: Homo sapiens; HT-29, MTT assay, 24 h incubation
How it was run: as §3

| SMILES | activity at 10 µM (786-0) [%] | activity at 10 µM (A549/ATCC) [%] | activity at 10 µM (ACHN) [%] | activity at 10 µM (CCRF-CEM) [%] | activity at 10 µM (DU-145) [%] | activity at 10 µM (HCC-2998) [%] | activity at 10 µM (HOP-62) [%] | activity at 10 µM (HT29) [%] | activity at 10 µM (IGROV1) [%] | activity at 10 µM (LOX IMVI) [%] | activity at 10 µM (MDA-MB-435) [%] | activity at 10 µM (MDA-MB-468) [%] | activity at 10 µM (NCI-H226) [%] | activity at 10 µM (NCI-H460) [%] | activity at 10 µM (NCI-H522) [%] | activity at 10 µM (OVCAR-4) [%] | activity at 10 µM (OVCAR-8) [%] | activity at 10 µM (PC-3) [%] | activity at 10 µM (RXF 393) [%] | activity at 10 µM (SK-MEL-5) [%] | also measured |
| --- | --- | --- | --- | --- | --- | --- | --- | --- | --- | --- | --- | --- | --- | --- | --- | --- | --- | --- | --- | --- | --- |
| O=C(/C=C/c1ccc(Cl)cc1)c1ccc(-n2cc(CN3CCN(c4cc5c(cc4F)c(=O)c(C(=O)O)cn5C4CC4)CC3)nn2)cc1 [Compound 4c, (E)-7-(4-((1-(4-(3-(4-chlorophenyl)acryloyl)phenyl)-1H-1,2,3-triazol-4-yl)methyl)piperazin-1-yl)-1-cyclopropyl-6-fluoro-4-oxo-1,4-dihydroquinoline-3-carboxylic acid] | 54.2 | 88.9 | 93.5 | 64.9 | 76.3 | 88.3 | 79.6 | 79.2 | 84 | 36.2 | 79.5 | 66 | 73 | 76.1 | 80.1 | 89.7 | 62 | 79.3 | 58.3 | 77.6 | activity at 10 µM (SK-OV-3): 80%; activity at 10 µM (SN12C): 45.8%; activity at 10 µM (SNB-19): 72%; activity at 10 µM (SNB-75): 72.3%; activity at 10 µM (SR): 24.1%; activity at 10 µM (SW-620): 83.7%; activity at 10 µM (TK-10): 83.3%; activity at 10 µM (UACC-257): 91%; activity at 10 µM (UACC-62): 73.8%; activity at 10 µM (HCT-116): 6.95%; activity at 10 µM (RPMI-8226): -0.51%; activity at 10 µM [1]: 73.9%; IC50 (Caco-2): 11.7 ± 2.95 µM; IC50 (HCT116): 6.45 ± 1.84 µM; IC50 (HT-29): 15.3 ± 1.54 µM |
| O=C(/C=C/c1ccccc1)c1ccc(-n2cc(CN3CCN(c4cc5c(cc4F)c(=O)c(C(=O)O)cn5C4CC4)CC3)nn2)cc1 [Compound 4a, (E) 7-(4-((1–(4-Cinnamoylphenyl)-1H-1,2,3-triazol-4-yl)methyl)piperazin-1-yl)-1-cyclopropyl-6-fluoro-4-oxo-1,4-dihydroquinoline-3-carboxylic acid] | 87.9 | 89.8 | 96.7 | 111 | 104 | 86 | 78.7 | 90.8 | 75.3 | 55.4 | 96.3 | 72.5 | 69.6 | 91.2 | 89.2 | 102 | 95.1 | 83.9 | 72 | 84.3 | activity at 10 µM (SK-OV-3): 84.9%; activity at 10 µM (SN12C): 103%; activity at 10 µM (SNB-19): 98.2%; activity at 10 µM (SNB-75): 92.7%; activity at 10 µM (SR): 99.6%; activity at 10 µM (SW-620): 90%; activity at 10 µM (TK-10): 103%; activity at 10 µM (UACC-257): 96.7%; activity at 10 µM (UACC-62): 90.5%; Growth Percent (HCT-116): -9.74%; activity at 10 µM (HCT-116): -9.74%; activity at 10 µM (RPMI-8226): 47.9%; activity at 10 µM [1]: 87.8%; IC50 (Caco-2): 8.39 ± 2.46 µM; IC50 (HCT116): 3.57 ± 0.59 µM; IC50 (HT-29): 22.4 ± 3.25 µM |
